Results: patent US8697873B2, “Amide substituted imidazopyridines, imidazoquinolines, and imidazonaphthyridines” (3M Innovative Properties Company, priority 2004, dated 2014)

Row | SMILES | melting point
1 | CCOCc1nc2c(N)nc(C)c(C)c2n1CCCC(=O)N1CCOCC1 [Example 45, 2-(Ethoxymethyl)-6,7-dimethyl-1-(4-morpholin-4-yl-4-oxobutyl)-1H-imidazo[4,5-c]pyridin-4-amine] | 156 to 158 °C
2 | CCCCc1nc2c(N)nc3ccccc3c2n1CCCCC(=O)N1CCOCC1 [Example 46, 2-Butyl-1-(5-morpholin-4-yl-5-oxopentyl)-1H-imidazo[4,5-c]quinolin-4-amine] | 141 to 143 °C
3 | Cc1nc2c(N)nc3ccccc3c2n1CCCCC(=O)N1CCOCC1 [Example 47, 2-Methyl-1-(5-morpholin-4-yl-5-oxopentyl)-1H-imidazo[4,5-c]quinolin-4-amine] | 218 to 219 °C
4 | CCOCc1nc2c(N)nc3ccccc3c2n1CCCCC(=O)N1CCOCC1 [Example 48, 2-(Ethoxymethyl)-1-(5-morpholin-4-yl-5-oxopentyl)-1H-imidazo[4,5-c]quinolin-4-amine] | 128 to 129 °C
5 | CCOCc1nc2c(N)nc3ccccc3c2n1CCCCC(N)=O [Example 49, 5-[4-Amino-2-(ethoxymethyl)-1H-imidazo[4,5-c]quinolin-1-yl]pentanamide] | 198 to 200 °C
6 | CCCc1nc2c(N)nc3c(c2n1CCCCC(=O)N1CCOCC1)CCCC3 [Example 50, 1-(5-Morpholin-4-yl-5-oxopentyl)-2-propyl-6,7,8,9-tetrahydro-1H-imidazo[4,5-c]quinolin-4-amine] | 158 to 160 °C
7 | CCCc1nc2c(N)nc3ccccc3c2n1CCC(=O)N(C)C [Example 51, 3-(4-Amino-2-propyl-1H-imidazo[4,5-c]quinolin-1-yl)-N,N-dimethylpropanamide] | 207 to 209 °C
8 | CCCCc1nc2c(N)nc3ccccc3c2n1CCCCC(N)=O [Example 52, 5-(4-Amino-2-butyl-1H-imidazo[4,5-c]quinolin-1-yl)pentanamide] | 219 to 221 °C
9 | CCCc1nc2c(N)nc3cccnc3c2n1CCCCCC(=O)N1CCOCC1 [Example 53, 1-(6-Morpholin-4-yl-6-oxohexyl)-2-propyl-1H-imidazo[4,5-c][1,5]naphthyridin-4-amine] | 148 to 150 °C
10 | CCCc1nc2c(N)nc3cccnc3c2n1CCCCCC(N)=O [Example 54, 6-(4-Amino-2-propyl-1H-imidazo[4,5-c][1,5]naphthyridin-1-yl)hexanamide] | 216.5 to 217.5 °C
11 | CCc1nc2c(N)nc3cccnc3c2n1CCCCCC(=O)N1CCOCC1 [Example 55, 2-Ethyl-1-(6-morpholin-4-yl-6-oxohexyl)-1H-imidazo[4,5-c][1,5]naphthyridin-4-amine] | 163 to 165 °C
12 | CCc1nc2c(N)nc3cccnc3c2n1CCCCCC(N)=O [Example 56, 6-(4-Amino-2-ethyl-1H-imidazo[4,5-c][1,5]naphthyridin-1-yl)hexanamide] | 220 to 221 °C
13 | CCOCc1nc2c(N)nc3cccnc3c2n1CCCCCC(=O)N1CCOCC1 [Example 57, 2-(Ethoxymethyl)-1-(6-morpholin-4-yl-6-oxohexyl)-1H-imidazo[4,5-c][1,5]naphthyridin-4-amine] | 168 to 170 °C
14 | CCOCc1nc2c(N)nc3cccnc3c2n1CCCCCC(N)=O [Example 58, 6-[4-Amino-2-(ethoxymethyl)-1H-imidazo[4,5-c][1,5]naphthyridin-1-yl]hexanamide] | 215 to 217 °C
15 | CCCc1nc2c(N)nc3ccccc3c2n1CC(N)=O [Example 59, 2-(4-Amino-2-propyl-1H-imidazo[4,5-c]quinolin-1-yl)acetamide] | > 300 °C
16 | CCc1nc2c(N)nc3ccccc3c2n1CC(C)(C)C(N)=O [Example 60, 3-(4-Amino-2-ethyl-1H-imidazo[4,5-c]quinolin-1-yl)-2,2-dimethylpropanamide] | 279 to 281 °C
17 | Cc1nc2c(N)nc3ccccc3c2n1CC(C)(C)C(N)=O [Example 61, 3-(4-Amino-2-methyl-1H-imidazo[4,5-c]quinolin-1-yl)-2,2-dimethylpropanamide] | 284 to 287 °C
18 | CCCCc1nc2c(N)nc3ccccc3c2n1CC(C)(C)C(N)=O [Example 63, 3-(4-Amino-2-butyl-1H-imidazo[4,5-c]quinolin-1-yl)-2,2-dimethylpropanamide] | 231 to 233 °C
19 | CCOCc1nc2c(N)nc3ccccc3c2n1CC1(C(N)=O)CC1 [Example 64, 1-{[4-Amino-2-(ethoxymethyl)-1H-imidazo[4,5-c]quinolin-1-yl]methyl}cyclopropanecarboxamide] | 230.5 to 232.5 °C
20 | CCCc1nc2c(N)nc3ccccc3c2n1CC1(C(N)=O)CCC1 [Example 65, 1-[(4-Amino-2-propyl-1H-imidazo[4,5-c]quinolin-1-yl)methyl]cyclobutanecarboxamide] | 234 to 237 °C
21 | CCc1nc2c(N)nc3ccccc3c2n1CC1(C(N)=O)CCC1 [Example 66, 1-[(4-Amino-2-ethyl-1H-imidazo[4,5-c]quinolin-1-yl)methyl]cyclobutanecarboxamide] | 227 to 230 °C
22 | CCOCc1nc2c(N)nc3ccccc3c2n1CC1(C(N)=O)CCCCC1 [Example 67, 1-{[4-Amino-2-(ethoxymethyl)-1H-imidazo[4,5-c]quinolin-1-yl]methyl}cyclohexanecarboxamide] | 221 to 223 °C
23 | CC(C)(Cn1c(CO)nc2c(N)nc3ccccc3c21)C(N)=O [Example 68, 3-[4-Amino-2-(hydroxymethyl)-1H-imidazo[4,5-c]quinolin-1-yl)-2,2-dimethylpropanamide] | 201 to 203 °C
